In patent US20130217702A1 (Richter Gedeon Nyrt., priority 2010, published 2013):

What was measured:
[1] = target: T1, recombinant human B1 receptors (Homo sapiens, UniProt P46663); experiment: Functional assay: antagonist potency by cytosolic calcium measurement (plate reader fluorimeter) in CHO-B1 cells, agonist LysDABK; type: cell-based; details: CHO-B1 cells, inhibition of LysDABK (EC80)-evoked [Ca2+]i elevation; read-out: B1 func.
T1 construct: host or cells: CHO (CHO-B1)
T1 sequence (P46663 1-353): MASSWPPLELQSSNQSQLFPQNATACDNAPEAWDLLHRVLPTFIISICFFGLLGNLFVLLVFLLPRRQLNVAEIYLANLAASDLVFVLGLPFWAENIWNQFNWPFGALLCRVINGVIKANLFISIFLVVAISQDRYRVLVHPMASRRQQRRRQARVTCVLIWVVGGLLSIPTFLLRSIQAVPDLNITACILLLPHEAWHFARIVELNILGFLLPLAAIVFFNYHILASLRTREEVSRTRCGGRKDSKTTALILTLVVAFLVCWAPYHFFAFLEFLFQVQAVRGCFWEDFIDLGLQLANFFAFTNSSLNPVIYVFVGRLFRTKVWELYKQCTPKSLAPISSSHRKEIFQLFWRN
In short: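 IC50 is the concentration giving half-maximal inhibition of the LysDABK (EC80) calcium response, fitted from at least three experiments. CHO cells stably expressing human B1 were dye-loaded, exposed to compound for 20-25 min, then read by fluo-4 fluorescence (ΔF/F) at 37 °C.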

[2] = target: T2, human recombinant bradykinin B1 receptor (Homo sapiens, UniProt P46663); experiment: Human recombinant bradykinin B1 receptor competitive radioligand binding; details: hB1 expressed in CHO cells, [3H]-[Des-Arg10] Kallidin radioligand; read-out: B1 binding
T2 construct: host or cells: CHO cells, clone hB1-A5
T2 sequence (P46663 1-353): T1 sequence (P46663 1-353)
In short: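 Competition radioligand binding on CHO-expressed hB1 membranes, using [3,4-prolyl-3,4-^3H(N)]-[Des-Arg^10] Kallidin as tracer, 15 min at 25° C. Excess Lys-des-Arg^9-Bradykinin (10 μM) set nonspecific binding. Sigmoidal fits of at least seven concentrations gave IC50, converted to Ki via Cheng-Prusoff; KD from Scatchard.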

Compound | IC50 [1] [nM] | Ki [2] [nM]
Cc1nc(-c2c(Cl)c3ccccc3n2-c2ccc(CNC(=O)C3(NC(=O)c4cc(C5CC5)on4)CC3)cc2)no1 [Example 165, 5-Cyclopropyl-isoxazole-3-carboxylic acid (1-{4-[3-chloro-2-(5-methyl-[1,2,4]oxadiazol-3-yl)-indol-1-yl]-benzylcarbamoyl}-cyclopropyl)-amide] | < 20 | < 20
Cc1cnc(C(=O)NC2(C(=O)NCc3ccc(-n4c(-c5noc(C)n5)c(Cl)c5ccccc54)cc3)CC2)cn1 [Example 161, 5-Methyl-pyrazine-2-carboxylic acid (1-{4-[3-chloro-2-(5-methyl-[1,2,4]oxadiazol-3-yl)-indol-1-yl]-benzylcarbamoyl}-cyclopropyl)-amide] | 20 to 100 | < 20
COc1cc(C(=O)NC2(C(=O)NCc3ccc(-n4c(-c5nc(C)no5)cc5ccccc54)cn3)CC2)on1 [Example 56, 3-Methoxy-isoxazole-5-carboxylic acid [1-({5-[2-(3-methyl-[1,2,4]oxadiazol-5-yl)-indol-1-yl]-pyridin-2-ylmethyl}-carbamoyl)-cyclopropyl]-amide] | 100 to 500 | 100 to 500
COc1ccc2c(c1)c(Cl)c(-c1noc(C)n1)n2-c1ccc(CNC(=O)C2(NC(=O)c3cc(OC)no3)CC2)cc1 [Example 64, 3-Methoxy-isoxazole-5-carboxylic acid (1-{4-[3-chloro-5-methoxy-2-(5-methyl-[1,2,4]oxadiazol-3-yl)-indol-1-yl]-benzylcarbamoyl}-cyclopropyl)-amide] | < 20 | < 20
COC(=O)c1cc2ccccc2n1-c1ccc(CNC(=O)C2(NC(=O)c3cc(OC)no3)CC2)cc1 [Example 14, 1-{4-[({1-[(3-Methoxy-isoxazole-5-carbonyl)-amino]-cyclopropanecarbonyl}-amino)-methyl]-phenyl}-1H-indole-2-carboxylic acid methyl ester] | < 20 | < 20
Cc1cc(C(=O)NC2(C(=O)NCc3ccc(-n4c(-c5noc(C)n5)c(Cl)c5cc(Cl)ccc54)cc3)CC2)no1 [Example 73, 5-Methyl-isoxazole-3-carboxylic acid (1-{4-[3,5-dichloro-2-(5-methyl-[1,2,4]oxadiazol-3-yl)-indol-1-yl]-benzylcarbamoyl}-cyclopropyl)-amide] | < 20 | < 20
Cc1nc(-c2c(Cl)c3cc(F)ccc3n2-c2ccc(CNC(=O)C3(NC(=O)c4cccnc4F)CC3)cc2)no1 [Example 117, N-(1-{4-[3-Chloro-5-fluoro-2-(5-methyl-[1,2,4]oxadiazol-3-yl)-indol-1-yl]-benzylcarbamoyl}-cyclopropyl)-2-fluoro-nicotinamide] | < 20 | < 20
Cc1nc(-c2c(Cl)c3ccccc3n2-c2ccc(CNC(=O)C3(NC(=O)c4ccc(C(F)(F)F)c(F)c4)CC3)cc2)no1 [Example 93, N-(1-{4-[3-Chloro-2-(5-methyl-[1,2,4]oxadiazol-3-yl)-indol-1-yl]-benzylcarbamoyl}-cyclopropyl)-3-fluoro-4-trifluoromethyl-benzamide] | 20 to 100 | 20 to 100
Cc1ncc(C(=O)NC2(C(=O)NCc3ccc(-n4c(-c5noc(C)n5)c(Cl)c5ccccc54)cc3)CC2)cn1 [Example 185, 2-Methyl-pyrimidine-5-carboxylic acid (1-{4-[3-chloro-2-(5-methyl-[1,2,4]oxadiazol-3-yl)-indol-1-yl]-benzylcarbamoyl}-cyclopropyl)-amide] | < 20 | < 20
COc1ccc2c(c1)c(Cl)c(-c1noc(C)n1)n2-c1ccc(CNC(=O)C2(NC(=O)c3cncc(C(F)(F)F)c3)CC2)cc1 [Example 130, N-(1-{4-[3-Chloro-5-methoxy-2-(5-methyl-[1,2,4]oxadiazol-3-yl)-indol-1-yl]-benzylcarbamoyl}-cyclopropyl)-5-trifluoromethyl-nicotinamide] | < 20 | < 20
Cc1nc(-c2c(Cl)c3ccccc3n2-c2ccc(CNC(=O)C3(NC(=O)c4ccncc4F)CC3)cc2)no1 [Example 97, N-(1-{4-[3-Chloro-2-(5-methyl-[1,2,4]oxadiazol-3-yl)-indol-1-yl]-benzylcarbamoyl}-cyclopropyl)-3-fluoro-isonicotinamide] | 20 to 100 | < 20
Cc1cnc(C(=O)NC2(C(=O)NCc3ccc(-n4c(-c5noc(C)n5)c(Cl)c5cc(F)ccc54)cc3)CC2)cn1 [Example 87, 5-Methyl-pyrazine-2-carboxylic acid (1-{4-[3-chloro-5-fluoro-2-(5-methyl-[1,2,4]oxadiazol-3-yl)-indol-1-yl]-benzylcarbamoyl}-cyclopropyl)-amide] | < 20 | < 20
COc1ccc2c(c1)cc(-c1nc(C)no1)n2-c1ccc(CNC(=O)C2(NC(=O)CC(F)(F)F)CC2)cc1 [Example 78, 1-(3,3,3-Trifluoro-propionylamino)-cyclopropanecarboxylic acid 4-[5-methoxy-2-(3-methyl-[1,2,4]oxadiazol-5-yl)-indol-1-yl]-benzylamide] | < 20 | < 20
Cc1nc(-c2c(Cl)c3ccccc3n2-c2ccc(CNC(=O)C3(NC(=O)Cc4ccsc4)CC3)cc2)no1 [Example 147, 1-(2-Thiophen-3-yl-acetylamino)-cyclopropanecarboxylic acid 4-[3-chloro-2-(5-methyl-[1,2,4]oxadiazol-3-yl)-indol-1-yl]-benzylamide] | 20 to 100 | 100 to 500
COc1ccc2c(c1)c(Cl)c(-c1nc(C)no1)n2-c1ccc(CNC(=O)C2(NC(=O)c3cc(OC)no3)CC2)cc1 [Example 51, 3-Methoxy-isoxazole-5-carboxylic acid (1-{4-[3-chloro-5-methoxy-2-(3-methyl-[1,2,4]oxadiazol-5-yl)-indol-1-yl]-benzylcarbamoyl}-cyclopropyl)-amide] | < 20 | < 20
Cc1nc(-c2c(Cl)c3ccccc3n2-c2ccc(CNC(=O)C3(NC(=O)c4ccno4)CC3)cc2)no1 [Example 134, Isoxazole-5-carboxylic acid (1-{4-[3-chloro-2-(5-methyl-[1,2,4]oxadiazol-3-yl)-indol-1-yl]-benzylcarbamoyl}-cyclopropyl)-amide] | < 20 | < 20
Cc1cc(C(=O)NC2(C(=O)NCc3ccc(-n4c(-c5noc(C)n5)c(Cl)c5ccccc54)cc3F)CC2)no1 [Example 107, 5-Methyl-isoxazole-3-carboxylic acid (1-{4-[3-chloro-2-(5-methyl-[1,2,4]oxadiazol-3-yl)-indol-1-yl]-2-fluoro-benzylcarbamoyl}-cyclopropyl)-amide] | < 20 | < 20
COc1cc(C(=O)NC2(C(=O)NCc3ccc(-n4c(-c5noc(C)n5)c(Cl)c5cc(F)ccc54)cn3)CC2)on1 [Example 62, 3-Methoxy-isoxazole-5-carboxylic acid [1-({5-[3-chloro-5-fluoro-2-(5-methyl-[1,2,4]oxadiazol-3-yl)-indol-1-yl]-pyridin-2-ylmethyl}-carbamoyl)-cyclopropyl]-amide] | < 20 | < 20
Cc1nc(-c2c(Cl)c3ccccc3n2-c2ccc(CNC(=O)C3(NC(=O)c4cccnc4Cl)CC3)c(F)c2)no1 [Example 104, 2-Chloro-N-(1-{4-[3-chloro-2-(5-methyl-[1,2,4]oxadiazol-3-yl)-indol-1-yl]-2-fluoro-benzylcarbamoyl}-cyclopropyl)-nicotinamide] | < 20 | < 20
Cc1nc(-c2c(Cl)c3ccccc3n2-c2ccc(CNC(=O)C3(NC(=O)C4CCC(=O)N4)CC3)cc2)no1 (stereo not shown) [Example 168, 5-Oxo-pyrrolidine-2-carboxylic acid (1-{4-[3-chloro-2-(5-methyl-[1,2,4]oxadiazol-3-yl)-indol-1-yl]-benzylcarbamoyl}-cyclopropyl)-amide] | 20 to 100 | < 20
C#CCCC(=O)NC1(C(=O)NCc2ccc(-n3c(-c4noc(C)n4)c(Cl)c4ccccc43)cc2)CC1 [Example 139, 1-Pent-4-ynoylamino-cyclopropanecarboxylic acid 4-[3-chloro-2-(5-methyl-[1,2,4]oxadiazol-3-yl)-indol-1-yl]-benzylamide] | < 20 | < 20
COc1cc(C(=O)NC2(C(=O)NCc3ccc(-n4c(C(N)=O)c(Cl)c5ccccc54)cc3)CC2)on1 [Example 188, 3-Chloro-1-{4-[({1-[(3-methoxy-isoxazole-5-carbonyl)-amino]-cyclopropane-carbonyl}-amino)-methyl]-phenyl}-1H-indole-2-carboxylic acid amide] | < 20 | 20 to 100
COc1cc(C(=O)NC2(C(=O)NCc3ccc(-n4c(-c5noc(C)n5)cc5ccccc54)cc3)CC2)on1 [Example 195, 3-Methoxy-isoxazole-5-carboxylic acid (1-{4-[2-(5-methyl-[1,2,4]oxadiazol-3-yl)-indol-1-yl]-benzylcarbamoyl}-cyclopropyl)-amide] | < 20 | < 20
